Literature values as cited in patent publication US20150272124A1, “ANTIMICROBIAL COMPOSITIONS CONTAINING CATIONIC ACTIVE INGREDIENTS” (Ecolab USA Inc., priority 2014, published 2015).

Conditions: calcium-chelating agent complex, logarithmic form

In the case of `O=C(O)CC(NC(CC(=O)O)C(=O)O)C(=O)O` (stereo not shown) [IDS, Iminodisuccinic Acid], the “Log Stability constant, Ca2+” value is given as 5.2.
